Test results taken from the NIST ThermoML archive (doi:10.1021/je1003065).

Test: mn = molality of the nth substance listed, in mol/kg
Details: Liquid, Vibrating tube method

[Br-].[Li+] [lithium bromide] + CCO
Details	mass density [kg/m3]
313.16 K, 69943 kPa, m1 = 2.272	954.83
313.16 K, 70035 kPa, m1 = 0.2335	838.62
313.16 K, 80024 kPa, m1 = 2.833	989.48
313.16 K, 99649 kPa, m1 = 1.462	925.34
313.17 K, 1995 kPa, m1 = 3.368	968.15
313.17 K, 5344 kPa, m1 = 3.368	970.84
313.17 K, 10286 kPa, m1 = 3.368	974.66
313.17 K, 19807 kPa, m1 = 3.368	981.61
313.17 K, 29957 kPa, m1 = 3.368	988.47
313.17 K, 40021 kPa, m1 = 2.833	967.43
313.17 K, 40159 kPa, m1 = 3.368	994.86
313.17 K, 49914 kPa, m1 = 3.368	1000.58
313.17 K, 80160 kPa, m1 = 2.272	960.11
313.17 K, 89963 kPa, m1 = 2.272	965.03
313.17 K, 99603 kPa, m1 = 3.368	1026.1
313.18 K, 59836 kPa, m1 = 3.368	1006.06
313.18 K, 69925 kPa, m1 = 3.368	1011.36
313.18 K, 89986 kPa, m1 = 3.368	1021.4
313.18 K, 100029 kPa, m1 = 2.272	969.91
313.19 K, 1459 kPa, m1 = 0.5972	812.65
313.2 K, 79843 kPa, m1 = 3.368	1016.39
323.13 K, 5012 kPa, m1 = 0.2335	784.23
323.13 K, 79954 kPa, m1 = 0.5972	859.95
323.14 K, 10001 kPa, m1 = 0.2335	788.63
323.14 K, 19956 kPa, m1 = 2.833	946.78
323.14 K, 29926 kPa, m1 = 3.368	981.06
323.14 K, 39945 kPa, m1 = 2.272	930.75
323.14 K, 39954 kPa, m1 = 1.462	885.66
323.14 K, 49912 kPa, m1 = 0.2335	819.58
323.14 K, 69926 kPa, m1 = 2.833	977.81
323.14 K, 70002 kPa, m1 = 1.462	904.07
323.14 K, 70002 kPa, m1 = 3.368	1004.85
323.15 K, 1023 kPa, m1 = 2.833	931.78
323.15 K, 1026 kPa, m1 = 0.5972	803.74
323.15 K, 1032 kPa, m1 = 2.272	901.6
323.15 K, 1032 kPa, m1 = 3.368	959.14
323.15 K, 1035 kPa, m1 = 1.462	855.48
323.15 K, 1203 kPa, m1 = 0.9499	825.48
323.15 K, 2012 kPa, m1 = 0.2335	781.53
323.15 K, 5014 kPa, m1 = 3.368	962.48
323.15 K, 5021 kPa, m1 = 0.5972	807.24
323.15 K, 5021 kPa, m1 = 2.833	935.15
323.15 K, 5024 kPa, m1 = 2.272	905.02
323.15 K, 5106 kPa, m1 = 1.462	859.08
323.15 K, 5451 kPa, m1 = 0.9499	829.11
323.15 K, 9995 kPa, m1 = 2.833	939.18
323.15 K, 10002 kPa, m1 = 2.272	909.13
323.15 K, 10023 kPa, m1 = 0.5972	811.53
323.15 K, 10026 kPa, m1 = 0.9499	832.95
323.15 K, 10065 kPa, m1 = 1.462	863.3
323.15 K, 19957 kPa, m1 = 0.9499	840.97
323.15 K, 19957 kPa, m1 = 3.368	974.07
